The text below walks through data of patent US20060058250A1, “Methods of treating proliferative skin diseases using carbazole derivatives” (Cephalon, Inc., priority 2004, published 2006).

One assay concerns keratinocytes. The note with it: cited from earlier work.
In assay [1] the test system is SCID-mouse-human skin model of psoriasis. Conditions: cited from earlier work.
The subject of a further assay is psoriasis. The assay can be described thus: Case report: patient with severe psoriasis treated with oral lestaurtinib. The format is in vivo, human. The note with it: person, severe psoriasis in the ankle region; oral solution 60 mg bid, 80 mg bid after 29 days; observed on day 60. The method, then:
A patient with a history of renal and prostate cancer, arthritic pain and chronic bronchitis presented with severe psoriasis in the ankle region. The patient started treatment with lestaurtinib at a dosage of 60 mg bid. Lestaurtinib was administered twice daily as an oral solution at a concentration of 25 mg/mL in polysorbate 80 NF (10 mL) and propylene glycol USP (10 mL), diluted in juice. The following juices are approved for use to administer lestaurtinib: grape, pineapple, apple, V8® 100% vegetable juice, and orange juice (pulp free). After 29 days from initiation, the dosage was increased to 80 mg bid.

As to `COC(=O)[C@@]1(O)C[C@H]2O[C@]1(C)n1c3ccccc3c3c4c(c5c6ccccc6n2c5c31)C(=O)NC4` [Compound K-252a, K-252a], in the assay with keratinocytes, the “block of autocrine NGF loop and keratinocyte apoptosis” value was “can block an autocrine NGF loop and result in keratinocyte apoptosis”. Besides, the “improvement in the skin condition” value in assay [1] is “noticeable improvement in the skin condition”. In the case of `C[C@]12O[C@H](C[C@]1(O)CO)n1c3ccccc3c3c4c(c5c6ccccc6n2c5c31)CNC4=O` [lestaurtinib], the remission of psoriasis entry in the assay on psoriasis is “relative remission of psoriasis”.
